Data set [1] concerns the target T1, human 5-HT2A receptor (Homo sapiens, UniProt P28223). The data set is described as follows: biochemical. It is filed as binding. The following applies: for displacement of [3H]ketanserin from the human 5-HT2A receptor: at 10 μM concentration. A general note: Displacement assays read how much labelled ligand stays bound in the presence of the test substance.
Data set [2] deals with T2, human 5-HT2C receptor (Homo sapiens, UniProt P28335).
T2 sequence (P28335 33-458): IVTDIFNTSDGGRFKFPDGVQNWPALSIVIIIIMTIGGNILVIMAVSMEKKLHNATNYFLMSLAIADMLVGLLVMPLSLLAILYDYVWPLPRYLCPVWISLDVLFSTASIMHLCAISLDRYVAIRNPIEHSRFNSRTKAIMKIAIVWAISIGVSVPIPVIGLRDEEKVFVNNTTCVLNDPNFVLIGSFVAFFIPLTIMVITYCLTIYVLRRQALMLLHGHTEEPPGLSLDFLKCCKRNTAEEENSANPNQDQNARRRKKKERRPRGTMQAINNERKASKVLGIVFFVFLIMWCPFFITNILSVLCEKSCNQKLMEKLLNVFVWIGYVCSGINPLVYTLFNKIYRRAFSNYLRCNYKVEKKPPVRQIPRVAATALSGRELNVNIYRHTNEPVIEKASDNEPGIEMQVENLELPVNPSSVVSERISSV
The data set is described as follows: Radioligand displacement binding, [3H]mesulergine, HeLa-5-HT2C cell membranes. The following applies: for selectivity for the 5-HT2C receptor: 5-HT2C over 5-HT2A; for Ki: [3H]mesulergine displacement, mean ± range of two independent assays; for 5-HT2A/2C: ratio of Ki 5-HT2A / Ki 5-HT2C.

For data set [3], the target named is T1, human 5-HT2A receptor. The data set is described as follows: Functional Ca2+ mobilization fluorescence assay in CHO-5-HT2A cells. The following applies: for agonist character at 5-HT2A receptor: in words; for Emax at 100 µM: read-out: % Emax 5-HT2A, % maximum response (5-HT) at 100 μM. It counts as cell-based. On the technique in general: Calcium flux is commonly read through the fluorescence of an indicator in the cells.

Data set [4] addresses T2, human 5-HT2C receptor. The data set is described as follows: Functional Ca2+ mobilization fluorescence assay in HeLa-5-HT2C cells. It counts as cell-based. The following applies: for agonist character at 5-HT2C receptor: functional assay, in words; for Emax at 100 µM: read-out: % Emax 5-HT2C.
For a further data set, the system named is LSD-trained rats. The following applies: ref [6],[7]; cited from earlier work.
For data set [5] the following is noted: hydrochlorides; ref [12],[13]; cited from earlier work.
For data set [6], the target named is 5-HT2A receptor. Conditions: ref Trachsel et al., 2009 [23]; cited from earlier work.
In data set [7] the test system is 5-HT2A receptor. The following applies: ref Trachsel et al., 2009 [23]; cited from earlier work. The source holds these as a separate data set.

The structures appear in SMILES notation. Where “and” joins values, the source holds several entries; their conditions need not be identical. Equal values may be shown once. Entries after “also recorded” stand apart in the source; their conditions may differ. Bounds are passed on as bounds.

Usually Ki stands for a dissociation constant, usually derived from enzyme kinetics or from competition with a known ligand. A lower Ki goes with a stronger hold on the target. In general, EC50 refers to the concentration giving half of the maximal effect. Higher therefore signals a need for much substance. The Emax is the maximal effect, on the per cent scale that the assay sets. In general, pKi refers to the negative decadic logarithm of the Ki, by convention in mol/L.

T1 sequence (P28223 whole entry): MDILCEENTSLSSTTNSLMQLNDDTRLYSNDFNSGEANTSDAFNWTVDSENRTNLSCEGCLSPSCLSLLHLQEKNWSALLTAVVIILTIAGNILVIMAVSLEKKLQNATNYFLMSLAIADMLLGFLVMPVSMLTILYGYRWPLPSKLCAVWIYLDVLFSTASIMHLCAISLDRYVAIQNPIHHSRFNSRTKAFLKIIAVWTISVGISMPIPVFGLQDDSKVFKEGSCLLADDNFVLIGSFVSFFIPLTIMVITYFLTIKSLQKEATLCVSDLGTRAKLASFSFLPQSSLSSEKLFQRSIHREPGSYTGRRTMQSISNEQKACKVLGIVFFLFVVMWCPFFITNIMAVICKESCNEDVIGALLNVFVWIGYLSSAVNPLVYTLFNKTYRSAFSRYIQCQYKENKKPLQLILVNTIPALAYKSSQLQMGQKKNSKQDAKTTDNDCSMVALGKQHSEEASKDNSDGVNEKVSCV

For the molecule `COc1ccc2oc3ccccc3c2c1CCN.Cl` [Compound 5, 2-(2-Methoxydibenzo[b,d]furan-1-yl)ethanamine Hydrochloride], at human 5-HT2A receptor [1], the affinity, expressed as Ki, was 2.55 µM and the “Ki at the h5-HT2A receptor (in words)” value was “low micromolar”. At human 5-HT2C receptor [2], the “selectivity for the 5-HT2C receptor” value is above 70 fold and the 5-HT2A/2C came out at 72. In addition, the Ki on human 5-HT2C receptor [2] (Ki 5-HT2C) was 0.035 µM and 0.0353 µM. For the same molecule, on human 5-HT2A receptor [3], the EC50 was determined as 14.5 µM and the Emax at 100 µM was 59%. The “agonist character at 5-HT2A receptor” value on human 5-HT2A receptor [3] (functional assay) is on record as “partial agonist”. Moreover, the “times weaker as agonist at 5-HT2A than at 5-HT2C” value at human 5-HT2A receptor [3] (functional potency 5-HT2A vs 5-HT2C) came to 70 times. Further, on human 5-HT2C receptor [4], it took 0.222 ± 0.041 µM to reach a half-maximal effect (EC50), the “agonist character at 5-HT2C receptor” value is “full agonists” and the Emax at 100 µM was 106%.

For the molecule `NCCc1c2c(cc3c1OCC3)OCC2` [2C-H-Fly], the drug discrimination response result with LSD-trained rats is listed as “positive drug discrimination response”.

In the case of `COc1cc2c(cc1CCN)oc1ccccc12.Cl` [Compound 3, 2-(2-Methoxydibenzo[b,d]furan-3-yl)ethanamine Hydrochloride], at human 5-HT2A receptor [1], the Ki was above 10 µM and the “displacement of [3H]ketanserin from the human 5-HT2A receptor” value (from here on “displacement of [3H]ketanserin”) is below 50%. Besides, on human 5-HT2C receptor [2], the inhibitory constant (Ki) at the human 5-HT2C receptor (in words) is on record as “submicromolar” and the 5-HT2A/2C is listed as above 49. At human 5-HT2C receptor [2] (Ki 5-HT2C), this molecule had a Ki of 0.204 µM. Moreover, at human 5-HT2A receptor [3], the EC50 is 32.4 µM and the Emax at 100 µM was 58.2%. In addition, at human 5-HT2A receptor [3] (functional assay), the “agonist character at 5-HT2A receptor” value is recorded as “very weak partial agonist”. On human 5-HT2C receptor [4], the EC50 worked out at 53.2 µM, the “agonist character at 5-HT2C receptor” value is given as “extremely weak partial agonists” and the Emax at 100 µM is 54%. For the same molecule, the “toxicity (in words)” value in data set [5] is “toxic”.

Take `Cl.NCCc1ccc2oc3ccccc3c2c1` [Compound 1, 2-(Dibenzo[b,d]furan-2-yl)ethanamine Hydrochloride]: on human 5-HT2A receptor [1], the Ki was above 10 µM and the “displacement of [3H]ketanserin” value was below 50%. Besides, at human 5-HT2C receptor [2], the “Ki at the human 5-HT2C receptor (in words)” value was “submicromolar” and the 5-HT2A/2C is on record as > > 14. The molecule further had a Ki at human 5-HT2C receptor [2] (Ki 5-HT2C) of 0.737 µM. In addition, on human 5-HT2A receptor [3], the midpoint of the response, the EC50, lay at 22.6 µM and the Emax at 100 µM is 66.1%. In addition, on human 5-HT2C receptor [4], the “agonist character at 5-HT2C receptor” value is given as “extremely weak partial agonists” and the Emax at 100 µM was determined as 49.1%. Besides, in data set [5], the “toxicity (in words)” value is on record as “toxic”.

In the case of `CC(N)Cc1ccc2oc3ccccc3c2c1.Cl` (centres unmarked) [Compound 2, 1-(Dibenzo[b,d]furan-2-yl)propan-2-amine Hydrochloride], on human 5-HT2A receptor [1], the Ki is above 10 µM and the “displacement of [3H]ketanserin” value is recorded as below 50%. Moreover, on human 5-HT2C receptor [2], the “Ki at the human 5-HT2C receptor (in words)” value is reported as “submicromolar” and the 5-HT2A/2C is recorded as > > 21. At human 5-HT2C receptor [2] (Ki 5-HT2C), this molecule gave a Ki of 0.474 µM. The Emax at 100 µM on human 5-HT2A receptor [3] was 64%. Besides, on human 5-HT2C receptor [4], the EC50 came out at 3.52 ± 0.74 µM, the “agonist character at 5-HT2C receptor” value is recorded as “moderately potent full agonist activity” and the Emax at 100 µM is 112%.

With `Cl.NCCc1cccc2c1oc1ccccc12` [Compound 4, 2-(Dibenzo[b,d]furan-4-yl)ethanamine Hydrochloride], at human 5-HT2A receptor [1], the Ki was above 10 µM and the “displacement of [3H]ketanserin” value is below 50%. In addition, on human 5-HT2C receptor [2], the “Ki at the human 5-HT2C receptor (in words)” value is listed as “submicromolar”, the “selectivity for the 5-HT2C receptor” value was above 70 fold and the 5-HT2A/2C is on record as above 71. Moreover, at human 5-HT2C receptor [2] (Ki 5-HT2C), the Ki was 0.14 µM. Moreover, the Ki at human 5-HT2C receptor [2] (pKi 5-HT2C) is 0.145 µM. In addition, on human 5-HT2A receptor [3], the EC50 turned out to be 3.33 ± 0.83 µM. The “% Emax 5-HT2A” value at human 5-HT2A receptor [3] (% maximum response (5-HT) at 100 μM) is reported as 88.21 ± 2.79%. Also, the “EC50 at 5-HT2A receptor (in words)” value on human 5-HT2A receptor [3] (functional assay) is recorded as “low micromolar”. Further, on human 5-HT2C receptor [4], the EC50 was found to be 1.38 ± 0.19 µM, the “agonist character at 5-HT2C receptor” value is on record as “moderately potent full agonist activity; also recorded: full agonists” and the Emax at 100 µM was 98%.

With `COc1cc(-c2ccccc2)c(OC)cc1CCN` [2C-phenyl, 2-(2,5-dimethoxy-4-phenylphenyl)ethanamine], at 5-HT2A receptor [6], the “pKi at the 5-HT2A receptor” value is listed as 6.11. Further, the “functional character at 5-HT2A receptor” value in the data set on 5-HT2A receptor [7] was “antagonist”.

The record behind these values is publication PMC7016908 (ACS Omega, 2020).
